Reference: PMC8196563, “Trichilones A–E: New Limonoids from Trichilia adolfi” (Molecules, 2021)
Converted amounts (≈) assume the structure as drawn. Where two headings read alike, the source gives them in different places.

Legend:
[1] = test system: Leishmania amazonensis promastigotes; assay: In vitro leishmanicidal activity against promastigotes; type: cell-based; conditions: 72 h, read-out: Leishmanicidal activity L.a, IC50
Method: (§1) Leishmanicidal activity was assayed according to Williams, with some modi-fication. Promastigotes of Leishmania: L. amazonensis, Clone 1, NHOM-BR-76-LTB-012 (Lma, donated by the Paul Sabatier Université, France) and L. braziliensis M2904 C192 RJA (M2904, donated by Dr. Jorge Arévalo from Universidad Peruana Cayetano Heredia, Peru). The strains were cultured in Schneider’s insect medium (pH 6.2), supplemented with 10% FBS and incubated in 96-microwell plates at 26 °C. Briefly, promastigotes in logarithmic phase of growth, at concentration of […], were exposed to samples dissolved in DMSO (1%) at different concentrations (3.1–100 μg/mL). Miltefosine (3.1–100 μg/mL, IDPS, France) was used as a positive control drug. The microwell plates were incubated for 72 h at 26 °C, the optical density of each well was measured and the IC50 values calculated. All assays were performed in triplicate.

[2] = test system: L. braziliensis promastigotes; assay: as above; type: cell-based; conditions: Leishmania braziliensis, 72 h, read-out: Leishmanicidal activity L.b, IC50
Method: as §1

[3] = Cytotoxicity in murine macrophage cells (resazurin); type: cell-based; conditions: mouse, Raw 264.7 macrophage cells, Raw 264.7 murine macrophage cells, triplicate
Method: The Raw 264.7 murine macrophage cell line was purchased from the American Type Culture Collection (ATCC-TIB71) (Manassas, VA, USA). The cells were maintained in DMEM-HG medium supplemented with 10% fetal bovine serum, 100 U/mL of penicillin and 100 μg/mL of streptomycin and sodium bicarbonate (2.2 g/L) in humidified atmosphere at 37 °C with 5% CO2. Samples were prepared as described above and added (in […]) at different concentrations (6.2–200 μg/mL). Medium blank, control drugs and cell growth controls were included to evaluate cell viability. The plates were incubated for 72 h at 37 °C with 5% CO2. After incubation for the indicated time, the cells were washed, after which 10 μL of Resazurin reagent (2.0 mM) was added. They were further incubated at 37 °C for 3 h in a humidified incubator. The IC50 values were assessed using a fluorometric reader (540 nm excitation, 590 nm emission) and Gen5 software. All assays were performed in triplicate.

[4] = L. amazonensis Clone 1 NHOM-BR-76-LTB-012 promastigotes, 26 °C, triplicate
[5] = L. braziliensis M2904 C192 RJA promastigotes, 26 °C, triplicate

Row | melting point [°C] | SMILES | IC50 [1, 4] [µg/mL] | IC50 [2, 5] [µg/mL] | IC50 at 72 h [3] [µg/mL] | IC50 [1] [µg/mL] | IC50 [2] [µg/mL]
1 |  | CCC(C)C(=O)OC1C(OC(C)=O)C2(C)C(c3ccoc3)CC(=O)C2C2(C)OC3CC(=O)OC(C)(C)C(CC(=O)OC)C3(C)C12 (stereo not drawn) [Compound 2, Trichilone B] | > 100 | 70.1 ± 3 (≈ 111 µM) | 30 ± 10 (≈ 47.6 µM) |  | 
2 |  | COC(=O)CC1C(C)(C)OC(=O)C=C2OC3(C)C(C(OC(=O)C(C)C)C(OC(C)=O)C4(C)C(c5ccoc5)CC(=O)C34)C21C (stereo not drawn) [Compound 5, Trichilone E] | 92 ± 7 (≈ 150 µM) | 68.1 ± 6 (≈ 111 µM) | 41.5 ± 24 (≈ 67.5 µM) |  | 
3 |  | CCCCCCCCCCCCCCCCOP(=O)([O-])OCC[N+](C)(C)C [Miltefosine, reference compound] | 5 ± 0.2 (≈ 12.3 µM) | 4.07 ± 0.5 (≈ 9.99 µM) | 21 ± 2 (≈ 51.5 µM) |  | 
4 | 143 | COC(=O)CC1C(C)(C)OC(=O)CC2OC3(C)C4C(=O)CC(c5ccoc5)C4(C)C(OC(C)=O)C(OC(=O)C(C)C)C3C21C (stereo not drawn) [Compound 1, Trichilone A] |  | 58 ± 18 (≈ 94 µM) | 42 ± 0.9 (≈ 68.1 µM) |  | 
5 |  | CCC(C)C(=O)OC1C(OC(C)=O)C2(C)C(c3ccoc3)CC(=O)C2C2(C)OC3CC(=O)OC(C)(C)C(CC(=O)OC)C3(C)C12O (stereo not drawn) [Compound 3, Trichilone C] |  |  | 60 ± 17 (≈ 92.8 µM) | > 100 | 87.2 ± 13 (≈ 135 µM)
6 |  | COC(=O)CC1C(C)(C)OC(=O)C=C2OC3(C)C(C(OC(C)=O)C(OC(C)=O)C4(C)C(c5ccoc5)CC(=O)C34)C21C (stereo not drawn) [Compound 4, Trichilone D] | > 100 | 98.5 ± 1.5 (≈ 168 µM) | 94.1 ± 4.2 (≈ 160 µM) |  | 
